Like-named read-outs stand apart in the source and are kept apart here.

The test system of data set [1] is HCV sub-genomic replicon of genotype 1a in replicon cell line W11.8. Nature of the data set: microbe, parasite or virus in culture. The data set is classed as cell-based, Hepatitis C virus. The settings on record: read-out: HCV-Replicon-ELISA-1a IC50. On the technique in general: In antiviral work, replicon cells carry a viral genome segment that copies itself.
Data set [2] concerns Huh-7 ET, Molt-4, DU-145, Hep-G2 and SH-SY5Y cells. Nature of the data set: [3H]Thymidine incorporation assay (cytotoxicity, CC50). Conditions: [3H]thymidine incorporation; cell line not given. A general note: Incorporation of labelled thymidine or its analogues reports DNA synthesis.
Test in data set [3]: as above
The settings on record: human.

With “3-[Cyclohex-3-enyl-(trans-4-methyl-cyclohexanecarbonyl)-amino]-5-(3,3-dimethyl-but-1-ynyl)-thiophene-2-carboxylic acid [Compound 13]”, the concentration for half-maximal inhibition (IC50) in data set [1] was in the range of 1 to 10 µM. Further, the CC50 in data set [2] fell in the range of 10 to 100 µM.

`CC(C)(C)C#Cc1cc(N(Cc2ccccc2)C(=O)[C@H]2CC[C@H](C)CC2)c(C(=O)O)s1` [Compound 74, 3-[Benzyl-(4-trans-methylcyclohexanecarbonyl)amino]-5-(3,3-dimethylbut-1-ynyl)thiophene-2-carboxylic acid]: in data set [1], the IC50 fell in the range of 0.1 to 1 µM. For the same compound, the CC50 in data set [2] was 10 to 100 µM.

For `CC(C)C#Cc1cc(N(C(=O)[C@H]2CC[C@H](C)CC2)[C@H]2CC[C@@H](OCCO)CC2)c(C(=O)O)s1` [Compound 61, 5-(3-Methylbut-1-yn-1-yl)-3-((N-4-cis-(2-hydroxy)-ethoxycyclohexyl)-(4-trans-methylcyclohexane)carboxamido)thiophene-2-carboxylic acid], the IC50 in data set [1] was in the range of 0.1 to 1 µM. In addition, the CC50 in data set [2] was in the range of 10 to 100 µM.

As to `CC(=O)N1CC[C@@H](N(c2cc(C#CC(C)(C)C)sc2C(=O)O)C(=O)[C@H]2CC[C@H](C)CC2)C1` (stereo in doubt) [Compound 60, 3-(N—((R)-1-Acetylpyrrolidin-3-yl)-4-trans-methylcyclohexane-carboxamido)-5-(3,3-dimethylbut-1-yn-1-yl)thiophene-2-carboxylic acid], the IC50 in data set [1] is 0.1 to 1 µM. For the same compound, in data set [2], the CC50 is over 100 µM.

As for `COCC(COC)N(c1cc(C#CC(C)(C)C)sc1C(=O)O)C(=O)[C@H]1CC[C@H](C)CC1` [Compound 39, 3-(-N-(1,3-Dimethoxypropan-2-yl)-4-trans-methylcyclohexanecarboxamido)-5-(3,3-dimethylbut-1-yn-1-yl)thiophene-2-carboxylic acid], the half-inhibitory concentration (IC50) in data set [1] lay in the range of 0.1 to 1 µM. Also, the CC50 in data set [2] was 10 to 100 µM.

For the compound `CCc1noc(C(C)N(c2cc(C#CC(C)(C)C)sc2C(=O)O)C(=O)[C@H]2CC[C@H](C)CC2)n1` (stereo partly drawn) [Compound 75], the concentration for half-maximal inhibition (IC50) in data set [1] is under 0.1 µM. Also, the CC50 in data set [2] is 10 to 100 µM.

For `CC(C)C#Cc1cc(N(C(=O)[C@H]2CC[C@H](C)CC2)[C@H]2CC[C@H](OCCO)CC2)c(C(=O)O)s1` [Compound 62, 5-(3-Methylbut-1-yn-1-yl)-3-((N-4-trans-(2-hydroxy)-ethoxycyclohexyl)-(4-trans-methylcyclohexane)carboxamido)thiophene-2-carboxylic acid], in data set [1], the IC50 was under 0.1 µM. Moreover, the CC50 in data set [2] was in the range of 10 to 100 µM.

In the case of “5-(3,3-dimethylbut-1-yn-1-yl)-3-(trans-4-methyl-N—((R)-1-methylsulfonyl)pyrrolidin-3-yl)thiophene-2-carboxylic acid [Compound 69]”, the IC50 in data set [1] was under 0.1 µM. In data set [2], this compound gave a CC50 of over 100 µM.

Turning to `CC(C)c1noc(C(C)N(c2cc(C#CC(C)(C)C)sc2C(=O)O)C(=O)[C@H]2CC[C@H](C)CC2)n1` (stereo partly drawn) [Compound 79], in data set [1], the 50% inhibitory concentration (IC50) is 0.1 to 1 µM. Also, in data set [2], the 50% cytotoxic concentration (CC50) lay within 10 to 100 µM.

For `CC(CN(c1cc(C#CC(C)(C)C)sc1C(=O)O)C(=O)[C@H]1CC[C@H](C)CC1)n1cccn1` (stereo partly drawn) [Compound 73, 5-(3,3-Dimethylbut-1-ynyl)-3-[(4-trans-methylcyclohexanecarbonyl)-(2-pyrazol-1-ylpropyl)amino]thiophene-2-carboxylic acid], the half-inhibitory concentration (IC50) in data set [1] was under 0.1 µM. In data set [2], this compound came in with a CC50 of 10 to 100 µM.

As for `CC[C@@H](C(=O)O)N(c1cc(C#CC(C)(C)C)sc1C(=O)O)C(=O)[C@H]1CC[C@H](C)CC1` (relative stereo) [Compound 41, 3-(N—((S)-1-carboxypropyl)-(4-trans-methylcyclohexane)-carboxamido)-5-(3,3-dimethylbut-1-yn-1-yl)thiophene-2-carboxylic acid], in data set [1], the IC50 is under 0.1 µM. Also, the CC50 in data set [2] was over 100 µM.

As for `Cn1ccc(CN(c2cc(C#CC(C)(C)C)sc2C(=O)O)C(=O)[C@H]2CC[C@H](C)CC2)n1` [Compound 71, 5-(3,3-Dimethylbut-1-ynyl)-3-((trans)-4-methyl-N-((1-methyl-1H-pyrazol-3-yl)methyl)cyclohexanecarboxamido)thiophene-2-carboxylic acid], the IC50 in data set [1] (Hepatitis C virus, W11.8, 96 h) was under 0.1 µM. The compound also registered a CC50 at 72 h in data set [3] of 10 to 100 µM.

As to `Cn1cc(CN(c2cc(C#CC(C)(C)C)sc2C(=O)O)C(=O)[C@H]2CC[C@H](C)CC2)cn1` [Compound 67, 5-(3,3-Dimethylbut-1-ynyl)-3-((trans)-4-methyl-N-((1-methyl-1H-pyrazol-4-yl)methyl)cyclohexanecarboxamido)thiophene-2-carboxylic acid], in data set [1] (Hepatitis C virus, W11.8, 96 h), the IC50 lay within 0.1 to 1 µM. Besides, the CC50 at 72 h in data set [3] is over 100 µM.

For the compound `CN(C)C[C@H]1C[C@H](N(c2cc(C#CC(C)(C)C)sc2C(=O)O)C(=O)[C@H]2CC[C@H](C)CC2)C1` [Compound 70, 5-(3,3-Dimethylbut-1-yn-1-yl)-3-(trans-4-methyl-N((trans-3-(dimethylamino)methyl)cyclobutyl)cyclohexanecarboxamido)thiophene-2 carboxylic acid], the IC50 in data set [1] is under 0.1 µM. This compound yielded a CC50 in data set [2] of over 100 µM.

On to `Cc1ccc(C(=O)N(c2cc(C#CC(C)(C)C)sc2C(=O)O)[C@H]2CC[C@H](O)CC2)cc1` [Compound 86, 5-(3,3-Dimethyl-but-1-ynyl)-3-[(trans-4-hydroxy-cyclohexyl)-(4-methyl-benzoyl)-amino]-thiophene-2-carboxylic acid], for which the IC50 in data set [1] (Hepatitis C virus, W11.8, 96 h) was under 0.1 µM. The half-maximal cytotoxic concentration (CC50) at 72 h in data set [3] was in the range of 10 to 100 µM.

Consider `CC(C)N(c1cc(C#CC(C)(C)O)sc1C(=O)O)C(=O)[C@H]1CC[C@H](C)CC1` [Compound 19, 5-(3-Hydroxy-3-methyl-but-1-ynyl)-3-[isopropyl-(trans-4-methyl-cyclohexanecarbonyl)-amino]-thiophene-2-carboxylic acid], for which the IC50 in data set [1] (Hepatitis C virus, W11.8, 96 h) lay in the range of 0.1 to 1 µM. The compound also showed a CC50 at 72 h in data set [3] of over 100 µM.

With `Cn1nccc1CN(c1cc(C#CC(C)(C)C)sc1C(=O)O)C(=O)[C@H]1CC[C@H](C)CC1` [Compound 77, 5-(3,3-Dimethylbut-1-ynyl)-3-((trans)-4-methyl-N-((1-methyl-1H-pyrazol-5-yl)methyl)cyclohexanecarboxamido)thiophene-2-carboxylic acid], the IC50 in data set [1] (Hepatitis C virus, W11.8, 96 h) was under 0.1 µM. In data set [3], the CC50 at 72 h is over 100 µM.

As to `COC(C)(C)C#Cc1cc(N(C(=O)[C@H]2CC[C@H](C)CC2)C(C)C)c(C(=O)O)s1` [Compound 22, 3-[Isopropyl-(trans-4-methyl-cyclohexanecarbonyl)-amino]-5-(3-methoxy-3-methyl-but-1-ynyl)-thiophene-2-carboxylic acid], the IC50 in data set [1] (Hepatitis C virus, W11.8, 96 h) fell in the range of 0.1 to 1 µM. In data set [3], this compound had a CC50 at 72 h of 10 to 100 µM.

Consider `CC(C)(C)C#Cc1cc(N(CCN2CCOCC2)C(=O)[C@H]2CC[C@H](C)CC2)c(C(=O)O)s1` [Compound 48, 5-(3,3-Dimethylbut-1-yn-1-yl)-3-(trans-4-methyl-N-(2-morpholinoethyl)cyclohexanecarboxamido)thiophene-2-carboxylic acid], for which the IC50 in data set [1] (Hepatitis C virus, W11.8, 96 h) was under 0.1 µM. The CC50 at 72 h in data set [3] fell in the range of 10 to 100 µM.

Consider `CN(C)C(=O)[C@H]1C[C@H](N(c2cc(C#CC(C)(C)C)sc2C(=O)O)C(=O)[C@H]2CC[C@H](C)CC2)C1` [Compound 63, 5-(3,3-Dimethylbut-1-yn-1-yl)-3-(N-(3-trans-(dimethylcarbamoyl)-cyclobutyl)-4-trans-methylcyclohexanecarboxamido)thiophene-2-carboxylic acid], for which the IC50 in data set [1] is under 0.1 µM. Further, the CC50 in data set [2] is over 100 µM.

Turning to `CC(=O)N1CC[C@H](N(c2cc(C#CC(C)(C)C)sc2C(=O)O)C(=O)[C@H]2CC[C@H](C)CC2)C1` (stereo in doubt) [Compound 59, 3-(N—((S)-1-Acetylpyrrolidin-3-yl)-4-trans-methylcyclohexanecarboxamido)-5-(3,3-dimethylbut-1-yn-1-yl)thiophene-2-carboxylic acid], the IC50 in data set [1] is under 0.1 µM. The compound also showed a 50% cytotoxic concentration (CC50) in data set [2] of over 100 µM.

For `CC(Cn1cccn1)N(c1cc(C#CC(C)(C)C)sc1C(=O)O)C(=O)[C@H]1CC[C@H](C)CC1` (stereo partly drawn) [Compound 80, 5-(3,3-Dimethylbut-1-ynyl)-3-[(4-trans-methylcyclohexanecarbonyl)-(1-methyl-2-pyrazol-1-yl-ethyl)amino]thiophene-2-carboxylic acid], in data set [1], the IC50 was under 0.1 µM. This compound showed a CC50 in data set [2] of 10 to 100 µM.

Regarding `CCc1noc(CN(c2cc(C#CC(C)(C)C)sc2C(=O)O)C(=O)[C@H]2CC[C@H](C)CC2)n1` [Compound 78, 5-(3,3-dimethylbut-1-ynyl)-3-[(3-ethyl-1,2,4-oxadiazol-5-yl)methyl-(4-trans-methylcyclohexanecarbonyl)amino]thiophene-2-carboxylic acid], the IC50 in data set [1] is under 0.1 µM. In data set [2], this compound gave a CC50 of 10 to 100 µM.

With `CC(C)(C)C#Cc1cc(N(C(=O)[C@H]2CC[C@H](C)CC2)C2CC2)c(C(=O)O)s1` [Compound 16, 3-[Cyclopropyl-(trans-4-methyl-cyclohexanecarbonyl)-amino]-5-(3,3-dimethyl-but-1-ynyl)-thiophene-2-carboxylic acid], the IC50 in data set [1] (Hepatitis C virus, W11.8, 96 h) fell in the range of 0.1 to 1 µM. For the same compound, the CC50 at 72 h in data set [3] lay within 10 to 100 µM.

As to “5-(3,3-dimethylbut-1-yn-1-yl)-3-(trans-4-methyl-N-((S)-1-methylsulfonyl)pyrrolidin-3-yl)thiophene-2-carboxylic acid [Compound 68]”, the IC50 in data set [1] is under 0.1 µM. The compound also registered a CC50 in data set [2] of over 100 µM.

As to `CC(C)C#Cc1cc(N(C(=O)[C@H]2CC[C@H](C)CC2)C2CCOCC2)c(C(=O)O)s1` [Compound 43, 3-(N-(tetrahydro-2H-pyran-4-yl)-4-trans-methyl-cyclohexanecarboxamido)-5-(3-methylbut-1-yn-1-yl)thiophene-2-carboxylic acid], the IC50 in data set [1] is under 0.1 µM. Moreover, the CC50 in data set [2] fell in the range of 10 to 100 µM.

As to `Cc1noc(C)c1CN(c1cc(C#CC(C)(C)C)sc1C(=O)O)C(=O)[C@H]1CC[C@H](C)CC1` [Compound 54, 5-(3,3-Dimethylbut-1-yn-1-yl)-3-(N-((3,5-dimethylisoxazol-4-yl)methyl)-4-trans-methylcyclohexanecarboxamido)thiophene-2-carboxylic acid], the IC50 in data set [1] was under 0.1 µM. The same compound had a 50% cytotoxic concentration (CC50) in data set [2] of 10 to 100 µM.

For orientation: IC50 means the midpoint of a concentration-inhibition curve. By CC50 is commonly meant the concentration at which the toxic effect on the cells reaches its halfway point.

These data come from patent publication US20140065103A1 (VERTEX PHARMACEUTICALS INCORPORATED, priority 2010, published 2014).
